Data: patent US20100197727A1, “Quinoline Derivatives as Antibacterial Agents” (priority 2005, published 2010)

How the values were obtained:
Experiment in all cases: Microtitre plate assay, IC90 determination
Format in all cases: cell-based
Conditions in all cases: 90% inhibitory concentration for bacterial growth
[1] = system: Staphylococcus aureus (ATCC43300)
Procedure: (§1) The bacteria used in this study were grown overnight in flasks containing 100 ml Mueller-Hinton Broth (Becton Dickinson—cat. no. 275730) in sterile de-ionized water, with shaking, at 37° C. Stocks (0.5 ml/tube) were stored at −70° C. until use. Bacteria titrations were performed in microtiter plates and colony forming units (CFUs) were determined In general, an inoculum level of approximately 100 CFUs was used for susceptibility testing.
(§2) Flat-bottom, sterile 96-well plastic microtiter plates were filled with 180 μl of sterile deionized water, supplemented with 0.25% BSA. Subsequently, stock solutions (7.8× final test concentration) of compounds were added in 45 μl volumes in column 2. Serial five-fold dilutions (45 μl in 180 μl ) were made directly in the microtiter plates from column 2 to reach column 11. Untreated control samples with (column 1) and without (column 12) inoculum were included in each microtiter plate. Depending on the bacteria type, approximately 10 to 60 CFU per well of bacteria inoculum (100 TCID50), in a volume of 100 μl in 2.8× Mueller-Hinton broth medium, was added to the rows A to H, except column 12. The same volume of broth medium without inoculum was added to column 12 in row A to H. The cultures were incubated at 37° C. for 24 hours under a normal atmosphere (incubator with open air valve and continuous ventilation). At the end of incubation, one day after inoculation, the bacterial growth was quantitated fluorometrically. Therefore resazurin (0.6 mg/ml) was added in a volume of 20 μl to all wells 3 hours after inoculation, and the plates were re-incubated overnight. A change in colour from blue to pink indicated the growth of bacteria. The fluorescence was read in a computer-controlled fluorometer (Cytofluor Biosearch) at an excitation wavelength of 530 nm and an emission wavelength of 590 nm. The % growth inhibition achieved by the compounds was calculated according to standard methods. The IC90 (expressed in μg/ml) was defined as the 90% inhibitory concentration for bacterial growth.

[2] = system: Bacillus subtilis (ATCC43639)
Procedure: as §1, §2

[3] = system: Staphylococcus aureus (ATCC25923)
Procedure: as §1, §2

[4] = system: Listeria monocytogenes (ATCC49594)
Procedure: as §1, §2

[5] = system: Streptococcus pneumoniae (ATCC6305)
Procedure: as §1, §2

[6] = system: Enterococcus faecalis (ATCC29212)
Procedure: as §1, §2

[7] = system: methicilline resistant Staphylococcus aureus (MRSA) (a clinical isolate from the University of Antwerp)
Procedure: as §1, §2

[8] = system: Staphylococcus aureus (ATCC29213)
Procedure: as §1, §2

[9] = system: Streptococcus pyogens (ATCC8668)
Procedure: as §1, §2

[10] = system: Streptococcus mutans (ATCC33402)
Procedure: as §1, §2

[11] = system: Enterococcus faecalis (ATCC14506)
Procedure: as §1, §2

[12] = system: Pseudomonas aeruginosa (ATCC27853)
Procedure: as §1, §2

[13] = system: Escherichia coli (ATCC25922)
Procedure: as §1, §2

[14] = system: Escherichia coli (ATCC35218)
Procedure: as §1, §2

COc1nc2ccc(Br)cc2cc1C(c1ccccc1)C(O)(CC[N+](C)(C)C)c1ccccc1.[I-] (single isomer, unassigned) [Compound 10]
IC90 STA 43300 [1]: 5.8 µg/mL | IC90 BSU 43639 [2]: 10.3 µg/mL | IC90 STA 25923 [3]: 11.5 µg/mL | IC90 LMO 49594 [4]: 1.2 µg/mL | IC90 SPN 6305 [5]: 16.3 µg/mL | IC90 EFA 29212 [6]: 5.8 µg/mL | IC90 STA RMETH [7]: 8.2 µg/mL | IC90 STA 29213 [8]: 14.5 µg/mL | IC90 SPY 8668 [9]: 1.3 µg/mL | IC90 SMU 33402 [10]: 10.3 µg/mL | IC90 EFA 14506 [11]: 12.9 µg/mL

COc1nc2ccc(Br)cc2cc1C(c1ccccc1)C(O)(CC[N+](C)(C)C)c1ccccc1.[I-] (single isomer, unassigned) [Compound 57]
IC90 STA 43300 [1]: 12.9 µg/mL | IC90 BSU 43639 [2]: 2.6 µg/mL | IC90 STA 25923 [3]: 12.9 µg/mL | IC90 LMO 49594 [4]: 2.6 µg/mL | IC90 SPN 6305 [5]: 16.3 µg/mL | IC90 EFA 29212 [6]: 12.9 µg/mL | IC90 STA RMETH [7]: 12.9 µg/mL | IC90 STA 29213 [8]: 12.9 µg/mL | IC90 SPY 8668 [9]: 12.9 µg/mL | IC90 SMU 33402 [10]: 12.9 µg/mL | IC90 EFA 14506 [11]: 12.9 µg/mL

COc1nc2ccc(Br)cc2cc1C(c1ccccc1)C(O)(CC[N+](C)(C)C)c1cccc2ccccc12.[I-] (single isomer, unassigned) [Compound 121]
IC90 STA 43300 [1]: 3.5 µg/mL | IC90 PAE 27853 [12]: 13.9 µg/mL | IC90 BSU 43639 [2]: 2.8 µg/mL | IC90 STA 25923 [3]: 2.2 µg/mL | IC90 ECO 25922 [13]: 12.4 µg/mL | IC90 LMO 49594 [4]: 0.5 µg/mL | IC90 SPN 6305 [5]: 3.5 µg/mL | IC90 EFA 29212 [6]: 2.8 µg/mL | IC90 STA RMETH [7]: 2.2 µg/mL | IC90 STA 29213 [8]: 0.4 µg/mL | IC90 SPY 8668 [9]: 3.5 µg/mL | IC90 SMU 33402 [10]: 2.8 µg/mL | IC90 EFA 14506 [11]: 2.8 µg/mL

CCCC[N+](C)(C)CCC(O)(c1cccc2ccccc12)C(c1ccccc1)c1cc2cc(Br)ccc2nc1OC.[I-] (single isomer, unassigned) [Compound C]
IC90 STA 29213 [8]: 0.4 µg/mL

COc1nc2ccc(Br)cc2cc1C(c1ccccc1)C(O)(CCc1ccccc1)CC[N+](C)(C)C.[I-] (single isomer, unassigned) [Compound F]
IC90 STA 29213 [8]: 2.1 µg/mL

COc1nc2ccc(Br)cc2cc1C(c1ccccc1)C(O)(CCC[N+](C)(C)C)c1cccc2ccccc12.[I-] (single isomer, unassigned) [Compound G]
IC90 STA 29213 [8]: 0.4 µg/mL

COc1nc2ccc(Br)cc2cc1C(c1ccccc1)C(O)(CCCC[N+](C)(C)C)c1ccc2ccccc2c1.[I-] (single isomer, unassigned) [Compound H]
IC90 STA 29213 [8]: 0.5 µg/mL

COc1nc2ccc(Br)cc2cc1C(c1ccccc1)C(O)(CCCC[N+](C)(C)C)c1ccccc1.[I-] (single isomer, unassigned) [Compound K]
IC90 STA 29213 [8]: 2.1 µg/mL

CSc1nc2ccc(Br)cc2cc1C(c1ccccc1)C(O)(CCCC[N+](C)(C)C)c1ccccc1.[I-] (single isomer, unassigned) [Compound L]
IC90 PAE 27853 [12]: 2.2 µg/mL | IC90 BSU 43639 [2]: 2.2 µg/mL | IC90 LMO 49594 [4]: 2.2 µg/mL | IC90 SPN 6305 [5]: 2.2 µg/mL | IC90 EFA 29212 [6]: 2.2 µg/mL | IC90 STA 29213 [8]: 2.2 µg/mL | IC90 SPY 8668 [9]: 0.4 µg/mL | IC90 SMU 33402 [10]: 0.4 µg/mL | IC90 ECO 35218 [14]: 11 µg/mL

COc1nc2ccc(Br)cc2cc1C(c1ccccc1)C(O)(CC[N+](C)(C)C)c1ccsc1.[I-] (single isomer, unassigned) [Compound M]
IC90 SPN 6305 [5]: 8.34 µg/mL | IC90 STA 29213 [8]: 1.7 µg/mL | IC90 SPY 8668 [9]: 8.34 µg/mL

COc1nc2ccc(Br)cc2cc1C(c1ccc(Cl)cc1)C(O)(CC[N+](C)(C)C)c1ccccc1.[I-] (single isomer, unassigned) [Compound N]
IC90 PAE 27853 [12]: 9.87 µg/mL | IC90 SPN 6305 [5]: 1.75 µg/mL | IC90 EFA 29212 [6]: 1.75 µg/mL | IC90 STA 29213 [8]: 1.8 µg/mL | IC90 SPY 8668 [9]: 1.75 µg/mL | IC90 ECO 35218 [14]: 17.55 µg/mL

COc1nc2ccc(Br)cc2cc1C(c1ccccc1)C(O)(CC[N+](C)(C)C)c1cccc(F)c1.[I-] (single isomer, unassigned) [Compound O]
IC90 SPN 6305 [5]: 1.7 µg/mL | IC90 EFA 29212 [6]: 8.53 µg/mL | IC90 STA 29213 [8]: 1.9 µg/mL | IC90 SPY 8668 [9]: 1.7 µg/mL

COc1nc2ccc(Br)cc2cc1C(c1ccccc1)C(O)(CC[N+](C)(C)C)c1ccc2ccccc2c1.[I-] (single isomer, unassigned) [Compound Q]
IC90 PAE 27853 [12]: 4.53 µg/mL | IC90 SPN 6305 [5]: 1.8 µg/mL | IC90 EFA 29212 [6]: 1.8 µg/mL | IC90 STA 29213 [8]: 1.8 µg/mL | IC90 SPY 8668 [9]: 1.8 µg/mL

COc1nc2ccc(Br)cc2cc1C(c1ccccc1)C(O)(CCC[N+](C)(C)C)c1ccc2ccccc2c1.[I-] (single isomer, unassigned) [Compound S]
IC90 PAE 27853 [12]: 1.85 µg/mL | IC90 SPN 6305 [5]: 0.47 µg/mL | IC90 EFA 29212 [6]: 1.85 µg/mL | IC90 STA 29213 [8]: 0.4 µg/mL | IC90 SPY 8668 [9]: 1.85 µg/mL

CSc1nc2ccc(Br)cc2cc1C(c1ccccc1)C(O)(CC[N+](C)(C)C)c1ccccc1.[I-] (single isomer, unassigned) [Compound T]
IC90 PAE 27853 [12]: 8.5 µg/mL | IC90 SPN 6305 [5]: 1.7 µg/mL | IC90 EFA 29212 [6]: 3.8 µg/mL | IC90 STA 29213 [8]: 1.7 µg/mL | IC90 SPY 8668 [9]: 1.7 µg/mL

COc1nc2ccc(Br)cc2cc1C(c1ccccc1)C(O)(CCCC[N+]1(C)CCCCC1)c1ccccc1.[I-] (single isomer, unassigned) [Compound U]
IC90 PAE 27853 [12]: 9.33 µg/mL | IC90 SPN 6305 [5]: 2.09 µg/mL | IC90 EFA 29212 [6]: 1.86 µg/mL | IC90 STA 29213 [8]: 1.9 µg/mL | IC90 SPY 8668 [9]: 1.86 µg/mL

COc1nc2ccc(Br)cc2cc1C(c1ccccc1)C(O)(CCc1ccccc1)CC[N+](C)(C)C.[I-] (single isomer, unassigned) [E]
IC90 STA 29213 [8]: 2.1 µg/mL

COc1nc2ccc(Br)cc2cc1C(c1ccccc1)C(O)(CCCC[N+](C)(C)C)c1ccc2ccccc2c1.[I-] (single isomer, unassigned) [I]
IC90 STA 29213 [8]: 2.9 µg/mL

COc1nc2ccc(Br)cc2cc1C(c1ccccc1)C(O)(CCCC[N+](C)(C)C)c1ccccc1.[I-] (single isomer, unassigned) [J]
IC90 STA 29213 [8]: 2.1 µg/mL

COc1nc2ccc(Br)cc2cc1C(c1ccccc1)C(O)(CCC[N+](C)(C)C)c1ccc2ccccc2c1.[I-] (single isomer, unassigned) [R]
IC90 PAE 27853 [12]: 2.07 µg/mL | IC90 SPN 6305 [5]: 0.46 µg/mL | IC90 EFA 29212 [6]: 1.17 µg/mL | IC90 STA 29213 [8]: 0.4 µg/mL | IC90 SPY 8668 [9]: 0.74 µg/mL | IC90 ECO 35218 [14]: 9.27 µg/mL
